Measured values as given in patent US20100160217A1 (priority 2005, published 2010).

Tests used:
UNC-49/GABAA receptors = experiment: Electrophysiology: GABA-induced current in wild type and unc-74 animals; type: cell-based, C. elegans; conditions: unc-74 mutant animals
C. elegans [1] = experiment: Aldicarb resistance assay (paralysis on drug plates); type: in vivo; conditions: unc-74 animals (data not shown)
Method: (§1) Pharmacological resistance assays. Plates were equilibrated to room temperature, weighed, and equal volumes of different concentrations of levamisole or aldicarb were added to make plates containing specific concentrations of drug. Once plates dried, they were seeded with a drop of OP50 and incubated overnight at room temperature. A minimum of 15 young adult animals (levamisole) or L4 animals (aldicarb) were placed on drug plates and maintained for two (levamisole) or eight (aldicarb) hours. The percentage of animals on each plate that were paralyzed in response to mild stimulation was determined. Data presented represents the mean +/− SEM of n=number of plates.

[2] = tested on: levamisole sensitive nAChR
Method: (§2) Electrophysiology was performed as previously described (Richmond and Jorgensen, 1999a).
(§3) To directly examine levamisole sensitive nAChR function, electrophysiological analysis was performed on wild type and unc-74 mutant animals (FIG. 2). Intact body wall muscles of dissected animals were voltage clamped and the amount of current elicited in response to levamisole was measured.

C. elegans [3] = tested on: C. elegans
Method: as §1

nAChRs = conditions: unc-74 animals; reduction not greater than in unc-38 mutants
Method: as §2, §3

## NCCCC(=O)O [GABA]
UNC-49/GABAA receptors
  GABA induced currents compared with wild type: equivalent

## CNC(=O)O/N=C/C(C)(C)SC [aldicarb]
C. elegans [1]
  resistance to aldicarb: only partially resistant

## c1ccc([C@H]2CN3CCSC3=N2)cc1 [levamisole]
[2]
  inward current elicited by focal pulses of levamisole: around 200 pA
[2]; unc-74 mutants, voltage clamped muscle cells
  levamisole induced current: completely abolished
C. elegans [3]; unc-74 mutant animals, all concentrations tested, FIG. 1(B)
  resistance to levamisole (paralysis): completely resistant
C. elegans [3]; unc-74 mutants, concentrations that completely paralyze wild type
  response to levamisole: no response
C. elegans [3]; wild type animals, levamisole resistance curves, FIG. 1(B)
  concentration of levamisole at which animals become paralyzed: ~0.15 mM
C. elegans [3]; wild type animals, solid media, millimolar concentrations of levamisole (0.2 mM), FIG. 1(A)
  time to hypercontraction and complete paralysis: ~2 h

## CN1CCCC1c1cccnc1 (stereo not drawn) [nicotine]
nAChRs
  amplitude of nicotine current relative to wild type: reduced
